Test results from US4777167A, “Pharmaceutically useful substituted thiacycloalkeno [3,2-b]pyridines, compositions and method of use” (Ortho Pharmaceutical Corporation, priority 1987, dated 1988).

Key:
calcium channels = biological target: T1, calcium channels (Oryctolagus cuniculus, UniProt P15381); assay: Inhibition of nitrendipine binding (3H-nitrendipine displacement, rabbit heart membranes); parameters: species or system rabbit (New Zealand white); conditions: Table II, 90 min, 4° C.
T1 construct: from tissue; host or cells: heart of female New Zealand white rabbits, membrane fraction (42,000×g pellet)
T1 sequence (P15381 whole entry, other chains not shown): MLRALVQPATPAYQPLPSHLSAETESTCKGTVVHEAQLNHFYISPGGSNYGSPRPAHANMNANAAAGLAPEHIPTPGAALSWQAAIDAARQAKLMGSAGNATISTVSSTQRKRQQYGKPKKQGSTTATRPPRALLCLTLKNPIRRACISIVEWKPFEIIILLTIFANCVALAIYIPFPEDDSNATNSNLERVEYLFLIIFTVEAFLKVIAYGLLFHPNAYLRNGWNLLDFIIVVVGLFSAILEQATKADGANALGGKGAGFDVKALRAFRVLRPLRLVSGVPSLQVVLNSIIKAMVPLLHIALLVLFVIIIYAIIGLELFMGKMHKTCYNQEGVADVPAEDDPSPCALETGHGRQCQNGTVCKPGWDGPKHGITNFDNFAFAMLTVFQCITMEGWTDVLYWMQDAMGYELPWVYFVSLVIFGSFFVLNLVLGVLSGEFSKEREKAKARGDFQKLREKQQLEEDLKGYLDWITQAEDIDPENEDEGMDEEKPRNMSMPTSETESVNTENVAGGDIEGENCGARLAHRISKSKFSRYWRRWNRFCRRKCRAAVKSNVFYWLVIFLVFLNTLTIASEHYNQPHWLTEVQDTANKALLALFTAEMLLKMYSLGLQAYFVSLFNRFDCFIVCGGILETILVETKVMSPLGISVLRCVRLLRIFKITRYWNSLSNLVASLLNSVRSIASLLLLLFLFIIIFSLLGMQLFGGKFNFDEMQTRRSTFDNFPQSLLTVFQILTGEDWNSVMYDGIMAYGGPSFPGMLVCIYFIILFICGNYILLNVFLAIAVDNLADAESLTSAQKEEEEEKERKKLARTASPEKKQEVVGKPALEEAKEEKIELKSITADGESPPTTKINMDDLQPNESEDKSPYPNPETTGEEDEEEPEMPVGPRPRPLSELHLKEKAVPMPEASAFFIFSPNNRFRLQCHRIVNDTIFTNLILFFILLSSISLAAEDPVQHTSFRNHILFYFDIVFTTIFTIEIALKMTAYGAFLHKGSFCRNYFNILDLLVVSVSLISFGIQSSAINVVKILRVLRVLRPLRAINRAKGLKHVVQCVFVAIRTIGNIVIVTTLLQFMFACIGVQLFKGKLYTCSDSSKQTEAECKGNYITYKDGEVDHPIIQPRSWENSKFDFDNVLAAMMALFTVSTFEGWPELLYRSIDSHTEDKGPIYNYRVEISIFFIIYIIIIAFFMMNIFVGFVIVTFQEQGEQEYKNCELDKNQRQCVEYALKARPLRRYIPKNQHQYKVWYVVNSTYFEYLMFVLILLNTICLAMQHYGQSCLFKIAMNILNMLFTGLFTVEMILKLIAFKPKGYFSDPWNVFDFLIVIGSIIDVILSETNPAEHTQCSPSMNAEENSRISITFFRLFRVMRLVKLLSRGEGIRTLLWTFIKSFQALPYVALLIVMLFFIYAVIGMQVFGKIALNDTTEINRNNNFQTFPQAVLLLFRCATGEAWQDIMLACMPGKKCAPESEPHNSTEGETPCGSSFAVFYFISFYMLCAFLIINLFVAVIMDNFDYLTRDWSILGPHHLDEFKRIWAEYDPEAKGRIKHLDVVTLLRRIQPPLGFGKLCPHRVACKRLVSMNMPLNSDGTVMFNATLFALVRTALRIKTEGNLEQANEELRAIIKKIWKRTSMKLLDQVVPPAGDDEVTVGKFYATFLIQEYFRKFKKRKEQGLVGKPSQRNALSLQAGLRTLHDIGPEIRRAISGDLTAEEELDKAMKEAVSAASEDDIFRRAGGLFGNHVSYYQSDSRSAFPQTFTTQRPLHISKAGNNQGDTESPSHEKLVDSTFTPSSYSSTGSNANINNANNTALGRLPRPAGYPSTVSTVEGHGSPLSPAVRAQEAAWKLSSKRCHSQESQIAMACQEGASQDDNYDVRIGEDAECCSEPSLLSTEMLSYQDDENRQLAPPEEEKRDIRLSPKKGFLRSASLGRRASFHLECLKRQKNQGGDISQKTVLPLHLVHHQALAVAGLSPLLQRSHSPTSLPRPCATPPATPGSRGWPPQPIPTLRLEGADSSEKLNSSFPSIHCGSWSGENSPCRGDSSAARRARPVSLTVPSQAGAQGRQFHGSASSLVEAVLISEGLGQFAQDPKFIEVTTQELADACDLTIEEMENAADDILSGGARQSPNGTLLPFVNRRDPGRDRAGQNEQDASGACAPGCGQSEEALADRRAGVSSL
T1 sequence (P13806 27-960 partner limits assumed, other chains not shown): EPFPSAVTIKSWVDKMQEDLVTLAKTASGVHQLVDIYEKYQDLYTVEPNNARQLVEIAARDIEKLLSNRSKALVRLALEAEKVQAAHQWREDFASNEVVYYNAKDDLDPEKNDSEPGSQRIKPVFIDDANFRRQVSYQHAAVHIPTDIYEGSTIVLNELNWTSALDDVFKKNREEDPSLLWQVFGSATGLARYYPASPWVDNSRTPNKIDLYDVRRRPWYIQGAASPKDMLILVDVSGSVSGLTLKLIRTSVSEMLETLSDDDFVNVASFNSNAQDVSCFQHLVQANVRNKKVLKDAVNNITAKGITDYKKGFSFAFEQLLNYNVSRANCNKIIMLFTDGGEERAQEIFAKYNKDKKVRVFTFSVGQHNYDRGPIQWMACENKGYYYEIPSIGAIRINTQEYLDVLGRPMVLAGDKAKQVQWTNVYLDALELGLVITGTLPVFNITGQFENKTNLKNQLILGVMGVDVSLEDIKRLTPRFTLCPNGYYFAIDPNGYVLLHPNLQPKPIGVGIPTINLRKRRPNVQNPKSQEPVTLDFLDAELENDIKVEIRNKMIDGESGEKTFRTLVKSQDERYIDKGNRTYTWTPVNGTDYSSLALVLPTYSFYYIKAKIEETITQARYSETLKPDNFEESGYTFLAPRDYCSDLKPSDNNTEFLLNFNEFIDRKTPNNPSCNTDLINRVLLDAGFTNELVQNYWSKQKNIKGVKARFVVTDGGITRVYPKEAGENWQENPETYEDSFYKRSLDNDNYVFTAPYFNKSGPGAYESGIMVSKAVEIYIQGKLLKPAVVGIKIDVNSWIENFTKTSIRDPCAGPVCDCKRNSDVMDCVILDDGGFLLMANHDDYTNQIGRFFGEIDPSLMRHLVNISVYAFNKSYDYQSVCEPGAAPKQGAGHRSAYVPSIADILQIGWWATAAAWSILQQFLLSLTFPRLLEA
T1 sequence (P13806 961-1106 partner limits assumed, other chains not shown): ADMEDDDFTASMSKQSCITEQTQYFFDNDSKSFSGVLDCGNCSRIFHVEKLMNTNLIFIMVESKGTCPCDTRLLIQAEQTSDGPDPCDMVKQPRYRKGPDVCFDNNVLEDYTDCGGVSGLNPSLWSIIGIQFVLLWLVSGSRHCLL
Protocol: (1) Inhibition of nitrendipine binding to calcium channels.
The assay for inhibition of nitrendipine binding follows the following procedure:
Female, New Zealand white rabbits (1-2 kg) are sacrificed by cervical dislocation, and the heart is immediately removed, cleaned, and chopped into small pieces. The tissue is homogenized in 5× volume of 0.05M Hepes buffer, pH 7.4. The homogenate is centrifuged at 4000×g for 10 minutes; the supernatant is recentrifuged at 42,000×g for 90 minutes. The resulting membrane pellet is resuspended (0.7 ml/g weight) in 0.05M Hepes, pH 7.4 and stored at -70° C. until used. Each tube of the binding assay contains ^3 H- nitrendipine (0.05-0.50 nM), buffer, membranes (0.10 ml), and test compound in a total volume of 1.0 ml. After 90 minutes at 4° C., the bound nitrendipine is separated from the unbound by filtration on Whatman GF/C fibers. After rinsing, the filters are dried and counted in a liquid scintillation counter.
Non-specific binding of ^3 H-nitrendipine (that amount bound in the presence of excess unlabelled nitrendipine) is subtracted from the total bound to obtain specifically bound radiolabeled nitrendipine. The amount of specifically bound nitrendipine in the presence of a test compound is compared to that amount bound in the absence of a compound. A percent displacement (or inhibition) can then be obtained.

trachealis muscle = assay: Inhibition of calcium dependent smooth muscle contraction (KCl-challenged trachea); type: cell-based, dog; conditions: Canis lupus familiaris, Table II; for inhibition at 0.1 µM: concentration 0.1 μM; for inhibition at 0.1 µM / inhibition at 0.2 µM / inhibition at 2 µM: read-out: Inhibition Trachea Muscle Contraction % Inhibition; for inhibition at 0.2 µM: concentration 0.2 μM; for inhibition at 2 µM: concentration 2.0 μM; for inhibition at 1 µM: concentration 1.0 μM
Protocol: The test for inhibition of calcium dependent smooth muscle contraction is determined according to the following procedure:
Trachea from dogs sacrificed by excess KCl injection are stored overnight at 4° C. in oxygenated Krebs-Henseleit buffer. Tracheal rings, one cartilage segment wide (5-10 mm), are cut starting from the bronchial end. After cutting the cartilage, the trachealis muscle tissue is suspended in oxygenated Krebs-Henseleit buffer at 37° C. in a 25 ml tissue bath. After a 60 minutes equilibration period, the tissues are challenged with 10 μM carbachol. After 5 minutes the tissues are rinsed and allowed to rest 50 minutes. The tissues are then challenged with 50 mM KCl and, after 30 minutes, the contractions are quantitated. The tissues are then rinsed and reequilibrated for 50 minutes. Test compounds are then added for 10 minutes, and the tissue is rechallenged with 50 mMKcl. After 30 minutes, the contraction is recorded and used to determine the % inhibition of control.
The percent inhibition of smooth muscle contraction is calculated from response data before and after drug treatment. [formula] A rating is assigned to the compound depending upon the percent inhibition obtained.

Aorta Muscle = assay: Inhibition of aorta muscle contraction; type: cell-based; conditions: Table II; concentration 0.1 μM

Row | IC50 (calcium channels) [nM] | Structure (SMILES) | inhibition at 0.1 µM (trachealis muscle) [%] | inhibition at 0.1 µM (Aorta Muscle) [%] | inhibition at 0.2 µM (trachealis muscle) [%] | inhibition at 2 µM (trachealis muscle) [%] | inhibition at 1 µM (trachealis muscle) [%]
1 | 86 | CC1=C(C(=O)OCCN(C)Cc2ccccc2)C(c2c(Cl)cccc2Cl)C2=C(CCCCS2(=O)=O)N1 (stereo not drawn) [4 2,6-Cl2C6 H3] | 55 | 50 | – | – | –
2 | 46 | CC1=C(C(=O)OCCN(C)c2ccccc2)C(c2ccccc2C(F)(F)F)C2=C(CCCCS2(=O)=O)N1 (stereo not drawn) [4 2-CF3C6 H4 CH2 CH2 NCH3 C6 H5] | 59 | 57 | – | – | –
3 | 160 | CC1=C(C(=O)OCCN(C)Cc2ccccc2)C(c2ccccc2C(F)(F)F)C2=C(CCCCS2(=O)=O)N1 (stereo not drawn) [4 2-CF3C6 H4, N-Benzyl-N-methylaminoethyl 2,4,5,6,9-hexahydro-7-methyl-9-(2-trifluoromethylphenyl)-1,1-dioxothiacyclohepteno[3,2-b]pyridine-8-carboxylate] | 64 | 85 | – | – | –
4 | 390 | CC1=C(C(=O)OCCN(C)Cc2ccccc2)C(c2cccc(C(F)(F)F)c2Cl)C2=C(CCCCS2(=O)=O)N1 (stereo not drawn) [4 2-Cl,3-CF3C6 H3] | – | 66 | 50 | – | –
5 | 29 | CC1=C(C(=O)OCCN(C)Cc2ccccc2)C(c2c(F)cccc2Cl)C2=C(CCCCS2(=O)=O)N1 (stereo not drawn) [4 2-Cl,6-FC6 H3, N-Benzyl-N-methylaminoethyl 9-(2-chloro-6-fluorophenyl)-2,4,5,6,9-hexahydro-7-methyl-1,1-dioxothiacyclohepteno[3,2-b]pyridine-8-carboxylate] | 50 | 66 | – | – | –
6 | 220 | CC1=C(C(=O)OCCN(C)Cc2ccccc2)C(c2ccccc2Cl)C2=C(CCCCS2(=O)=O)N1 (stereo not drawn) [4 2-ClC6 H4, N-Benzyl-N-methylaminoethyl 9-(2-chlorophenyl)-2,4,5,6,9-hexahydro-7-methyl-1,1-dioxothiacyclohepteno[3,2-b]pyridine-8-carboxylate] | 57 | 54 | – | – | –
7 | 440 | CC1=C(C(=O)OCCN(C)Cc2ccccc2)C(c2ccccc2F)C2=C(CCCCS2(=O)=O)N1 (stereo not drawn) [4 2-FC6 H4] | – | 32 | – | 84 | –
8 | 2800 | CC1=C(C(=O)OCCN(C)Cc2ccccc2)C(c2cccc(C(F)(F)F)c2)C2=C(CCCCS2(=O)=O)N1 (stereo not drawn) [4 3-CF3C6 H4] | – | 44 | 37 | – | –

Second part, the compound before the results:

Row | Structure (SMILES) | IC50 (calcium channels) [nM] | inhibition at 0.1 µM (trachealis muscle) [%] | inhibition at 0.1 µM (Aorta Muscle) [%] | inhibition at 0.2 µM (trachealis muscle) [%] | inhibition at 2 µM (trachealis muscle) [%] | inhibition at 1 µM (trachealis muscle) [%]
9 | CC1=C(C(=O)OCCN(C)Cc2ccccc2)C(c2cc([N+](=O)[O-])ccc2Cl)C2=C(CCCCS2(=O)=O)N1 (stereo not drawn) [4 2-Cl,5-NO2C6 H3] | 260 | 38 | 63 | – | – | –
10 | CC1=C(C(=O)OCCCN(C)Cc2ccccc2)C(c2ccccc2[N+](=O)[O-])C2=C(CCCCS2(=O)=O)N1 (stereo not drawn) [4 2-NO2C6 H4 CH2 CH2 CH2 NCH3 CH2 C6 H5] | 1000 | – | 7.7 | – | – | 41
11 | CC1=C(C(=O)OCCN(C)c2ccccc2)C(c2ccccc2[N+](=O)[O-])C2=C(CCCCS2(=O)=O)N1 (stereo not drawn) [4 2-NO2C6 H4 CH2 CH2 NCH3 C6 H5] | 86 | 57 | 43 | – | – | –
12 | CC1=C(C(=O)OCCN(C)Cc2ccccc2)C(c2ccccc2[N+](=O)[O-])C2=C(CCCCS2(=O)=O)N1 (stereo not drawn) [4 2-NO2C6 H4] | 440 | 49 | 44 | – | – | –
13 | CC1=C(C(=O)OCCCN(C)Cc2ccccc2)C(c2cccc([N+](=O)[O-])c2)C2=C(CCCCS2(=O)=O)N1 (stereo not drawn) [4 3-NO2 C6 H4 CH2 CH2 CH2 NCH3 CH2 C6 H5] | 290 | – | 25 | – | 50 | –
14 | CC1=C(C(=O)OCCN(C)c2ccccc2)C(c2cccc([N+](=O)[O-])c2)C2=C(CCCCS2(=O)=O)N1 (stereo not drawn) [4 3-NO2C6 H4 CH2 CH2 NCH3 C6 H5] | 45 | – | 53 | – | – | 65
15 | CC1=C(C(=O)OCCNc2ccccc2)C(c2cccc([N+](=O)[O-])c2)C2=C(CCCCS2(=O)=O)N1 (stereo not drawn) [4 3-NO2C6 H4 CH2 CH2 NHC6 H5] | 16 | – | 48 | – | – | 72
